The values below are quoted from earlier work in the CATMoS acute toxicity set (Mansouri et al. 2021).

Values joined by “and” are separate entries in the source; they are usually repeats but may differ in a detail not shown here. Equal entries are not always repeated.

The data set in a line: rat acute oral toxicity. The note with it: in vivo. The source says: […]The data set underlying the modeling effort for this project was initially compiled by NICEATM and U.S. EPA’s CCTE. Briefly, LD50 data were collected from rat acute oral systemic toxicity tests, including limit tests, ranges/confidence intervals, and discrete LD50 values. The full data set included 21,200 LD50 entries for 15,688 substances. […] Data were reviewed to ensure that LD50 values with obvious errors in the extracted data such as unit conversion errors (e.g., comma and decimal separator misplacements) were either fixed or removed. After this review, 16,209 LD50 values remained. Many of the chemicals represented had multiple LD50 entries, requiring that a single representative value per Chemical Abstracts Service Registry Number (CASRN) identifier be defined to facilitate modeling efforts. Based on ATWG feedback and to define the representative LD50 as a protective value while accounting for the distribution across multiple LD50s, the median of the lowest quartile was computed using only discrete LD50 values (omitting limit test data and range and confidence interval data). A detailed summary of the data compilation is available online on the NICEATM webpage dedicated to the collaborative modeling project (NTP 2020).
[…][…] For categorical designations, limit test and range/confidence interval LD50 data were integrated wherever possible. As such, the number of chemicals with end point values/calls varies across the modeling end points (Table 3) based on whether chemicals had representative LD50 values and/or other data. If a chemical had both, the representative value was used to determine categorical calls rather than limit test data. Some data were useable only for certain end points and categories depending on the thresholds. For example, ranges that spanned multiple hazard categories were considered only for the binary (very toxic/nontoxic) end points and omitted from rendering a determination for hazard category assignment.
[…]The final data set comprising 11,992 chemicals was split into training and evaluation sets […], respectively. This process was performed semirandomly by ordering chemicals based on the five end points (categorical and continuous LD50 values) and partitioning every fourth record into the evaluation set accordingly. This approach was taken to ensure an equivalent distribution of the LD50 values and the different hazard categories between the training and the evaluation sets without supervised sampling of the chemicals based on structures (Figure 1A). The sources of the chemical structures were also kept equivalent between the two sets, with chemical structures obtained from DSSTox, being the highest quality, representing over 75% of each set (Figure 1B).
As to `COP(=S)(NC(C)C)Oc1ccc(Cl)cc1Cl` (configuration not stated), the LD50 was 270 mg/kg.

As to `C=CC[N+](C)(C)CC=C`, the LD50 is 3000 mg/kg.

Take `CCO[Si](CCCS)(OCC)OCC`: the LD50 was 6110 mg/kg.

For `O=C(OCCCl)c1ccccc1C(=O)OCCCl`, the LD50 was 730 mg/kg.

For the compound `COCCNC(=O)c1nc2c(N)nc(-c3ccccc3)nc2nc1NCCOC`, the median lethal dose (LD50) was 5010 mg/kg.

With `NC1CC1`, the LD50 is 445 mg/kg.

In the case of `CC(=O)OC12CCC(C)=CCC13CCC2C(C)(C=CC=C(C)C(=O)O)OC3=O` (configuration not stated), the LD50 was 219 mg/kg.

With `COP(=O)(OC1CCCCC1)SC` (configuration not stated), the LD50 was 240 mg/kg.

`N=C(S)NN=Nc1ccc(Cl)c(Cl)c1`: the LD50 is 1 mg/kg.

Turning to `CCCCCCCCCCCCCCCCSCC(COC)COP(=O)([O-])OCC[N+](C)(C)C` (configuration not stated), the LD50 is 253 mg/kg.

For the compound `ClC1=C(Cl)C2(Cl)C3C(Br)C=CC3C1(Cl)C2(Cl)Cl` (configuration not stated), the LD50 is 1040 mg/kg.

On to `C=CCN1CCCC1=Nc1ccc(Cl)c(Cl)c1`, for which the LD50 is 1850 mg/kg.

With `C=C(C)C(=O)OCCC[Si](OC)(OC)OC`, the LD50 is 23500 mg/kg.

For `CS(=O)(=O)OCCCN(CCCOS(C)(=O)=O)Cc1ccccc1`, the LD50 is 375 mg/kg.

For `CC#CCC(C)[C@H](O)/C=C/[C@@H]1[C@H]2c3cccc(CCCC(=O)O)c3O[C@H]2C[C@H]1O` (some centres not stated), the LD50 was 12 mg/kg and 11.6 mg/kg.

For the compound `CCOP(=O)(O)O`, the LD50 is 1600 mg/kg.

Consider `CC1C2Cc3ccc(O)cc3C1(C)CCN2CCc1ccccc1` (configuration not stated), for which the median lethal dose (LD50) was 90 mg/kg.

As for `c1ccc(COCc2ccccc2)cc1`, the LD50 is 2500 mg/kg.

In the case of `Clc1ccc(N=Nc2ccc(NCCCN3CCCCC3)c3c2CCCC3)cc1`, the LD50 was 1120 mg/kg.

Turning to `CN(C)CCC(c1ccccc1)c1ccccn1` (configuration not stated), the LD50 was 520 mg/kg.

As for `C=CCSCC1(C(C)CCC)C(=O)N=C(O)NC1=O` (configuration not stated), the LD50 is 702 mg/kg.

In the case of `Nc1nc2ccc(Br)cc2o1`, the LD50 was 500 mg/kg.

Take `CCCc1c(OCc2cccn3c(=O)c(CCC(=O)O)cnc23)ccc(C(C)=O)c1O`: the LD50 was 4000 mg/kg.

In the case of `CCOP(=S)(OCC)Oc1cc(C)[nH]n1`, the LD50 was 12 mg/kg.

Regarding `COc1ccc2ccc(=O)oc2c1CC=C(C)C`, the LD50 was 2900 mg/kg.

Regarding `O=c1oc2cc(O)ccc2s1`, the LD50 is 633 mg/kg.

Turning to `CCOC(=O)/C=C1/SC(N2CCCCC2)C(=O)N1C` (configuration not stated), the LD50 was 10200 mg/kg.

In the case of `O=S1(=O)CCC(NNc2ccccc2)C1` (configuration not stated), the LD50 was 2380 mg/kg.

As to `CO[C@]12C[C@@H](COC(=O)c3cncc(Br)c3)CN(C)[C@@H]1Cc1cn(C)c3cccc2c13`, the LD50 is 1190 mg/kg.

As for `CCCCCC=CCC1CC(=O)OC1=O` (configuration not stated), the LD50 is 1100 mg/kg.

Consider `CC(C)NCC(O)c1cc(O)cc(O)c1` (configuration not stated), for which the 50% lethal dose (LD50) was 3370 mg/kg.

For `COC(=O)C1=C(C)NC(C)=C(C(=O)O[C@@H]2CCCN(Cc3ccccc3)C2)[C@@H]1c1cccc([N+](=O)[O-])c1` (racemic), the LD50 is 87.6 mg/kg.

Take `O=C1CCC(=O)N1c1cc(Cl)cc(Cl)c1`: the LD50 was 890 mg/kg.

For the compound `N#CCCOCCOCCO`, the LD50 is 13400 mg/kg.

On to `CCCC(=O)CCC`, for which the LD50 was 3730 mg/kg.

For `CCOP(=S)(Oc1ccc([N+](=O)[O-])cc1)Oc1ccc([N+](=O)[O-])cc1`, the LD50 was 66.9 mg/kg.

Take `C=CCON/C(CCC)=C1\C(=O)CC(C)(C)C(C(=O)OC)=C1O`: the 50% lethal dose (LD50) is 2260 mg/kg.

On to `COP(=O)(OC)OC(=CCl)c1cc(Cl)c(Cl)cc1Cl`, for which the LD50 is 4000 mg/kg.

As for `O=C=NCC1CCC(CN=C=O)CC1` (configuration not stated), the LD50 is 1600 mg/kg.

As for `Nc1cc(Cl)cc(C(=O)O)c1Cl`, the LD50 was 3500 mg/kg.

In the case of `CC(C)CCCCCOP(OCCCCCC(C)C)OCCCCCC(C)C`, the LD50 is 9200 mg/kg.

On to `Nc1ccc(C(F)(F)F)cc1`, for which the LD50 is 128 mg/kg.

For the compound `CCOCOC(=O)c1ccccc1Nc1c(Cl)ccc(C)c1Cl`, the LD50 was 307 mg/kg.

`CCC1(CCl)COC1`: the LD50 is 570 mg/kg.

As to `COc1ccccc1C1=CCN(CC=Cc2ccc3c(c2)CCC(=O)N3)CC1`, the LD50 was 500 mg/kg.

Consider `CN1CCCC(CC2c3ccccc3Sc3ccccc32)C1` (configuration not stated), for which the 50% lethal dose (LD50) was 1460 mg/kg.

For the compound `COP(=O)(CCC(=O)NCO)OC`, the LD50 was 13000 mg/kg.

Take `CCCCCCCc1ccccc1O`: the LD50 was 2750 mg/kg.

Regarding `FC(F)(F)c1nc2c(Br)c(Cl)c(Cl)c(Br)c2[nH]1`, the median lethal dose (LD50) is 3.43 mg/kg.

In the case of `CC(O)COC(C)(C)C` (configuration not stated), the LD50 is 3770 mg/kg.

Take `FC(F)(F)c1nc2c(Cl)c(Cl)c(Br)cc2[nH]1`: the LD50 is 2.78 mg/kg.

On to `CCCC(C)=NO`, for which the LD50 is 1130 mg/kg.
